Values quoted from earlier work in patent US20120040397A1, “Photo-Crosslinked Nucleic Acid Hydrogels” (priority 2008, published 2012).

Tests used:
PPAR-gamma = target: T1, PPAR-gamma (Homo sapiens, UniProt P37231); conditions: context-specific, depends on cell type
T1 sequence (P37231 1-505): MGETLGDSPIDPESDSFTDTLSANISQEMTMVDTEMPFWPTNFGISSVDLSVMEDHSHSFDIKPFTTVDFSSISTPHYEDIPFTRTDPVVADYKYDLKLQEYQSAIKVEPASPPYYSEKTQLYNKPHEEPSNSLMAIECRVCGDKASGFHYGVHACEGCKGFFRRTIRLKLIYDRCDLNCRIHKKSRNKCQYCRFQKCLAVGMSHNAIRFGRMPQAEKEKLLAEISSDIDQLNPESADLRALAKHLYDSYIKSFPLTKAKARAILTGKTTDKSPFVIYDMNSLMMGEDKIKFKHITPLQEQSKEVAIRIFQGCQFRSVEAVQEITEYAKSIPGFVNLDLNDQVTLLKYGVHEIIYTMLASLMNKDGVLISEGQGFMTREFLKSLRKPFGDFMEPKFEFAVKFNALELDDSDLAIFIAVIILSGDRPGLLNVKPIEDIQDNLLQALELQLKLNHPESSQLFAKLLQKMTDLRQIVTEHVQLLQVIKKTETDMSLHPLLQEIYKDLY

[1] = in vivo

In the case of `O=C1NC(=O)C(Cc2ccc3cc(OCc4ccccc4F)ccc3c2)S1` (stereo not drawn) [netoglitazone, 5-[{6-(2-fluorobenzyl)oxy-2-naphthyl}methyl]-2,4-thiazolidinedione], the PPAR-gamma modulation (PPAR-gamma) is listed as “full agonist of PPAR-gamma and as a partial agonist or antagonist in others”, the “efficacy in lowering plasma glucose, insulin, and triglyceride levels versus pioglitazone and troglitazone” value [1] is listed as “more efficacious” and the “potency relative to rosiglitazone” value [1] is listed as “about three-fold”.
